The text below walks through data of patent EP1342779A1, “Means and methods for manipulating hypersensitivity-like responses” (Fornix Biosciences N.V., priority 2002, dated 2003).

Data set [1] relates to Ig light chain. The data set is described as follows: Stability of F991 in ointment, read out as activity in the ear swelling test after storage. It counts as in vivo, mice. The note with it: Cremor Cetamacrogolis FNA, stored 2-3 months at room temperature and at 4 degrees Celsius. The protocol: (§1) • A. F991 was prepared as an ointment in Cremor Cetomacrogolis FNA and topically applied on the ear at 4 hours before hapten challenge. Subsequently, mice were passively sensitized with 2 µg TNP-specific Ig-LC n at 30 min before and ear thickness was measured 2 hours after hapten challenge of the ears. […] Therefore F991 was applied on the back of the mice instead of at the site of hapten challenge (ear). Mice were again sensitized and challenged as described above. […] This means that epicutaneous treatment should be done at the site of challenge (Figure 14). • C. Stability of F991 in ointment To determine the stability of F991 in ointment, different preparations of F991 in Cremor Cetamacrogolis FNA were tested for their activity after storage for 2-3 months at room temperature and at 4 degrees Celsius. The different preparations were applied at the ear as described in A. and subsequently ear swelling was monitored after hapten challenge of Ig-LC-sensitized animals. […] Mice were sensitized with a low molecular weight compound DNFB on the skin and footpads (on day 0 and 1). 5 days after the start of sensitization and 4 hours before local challenge with hapten, mice were treated with F991 on the ears.

Data set [2] deals with DNFB-sensitized mice. Nature of the data set: Contact sensitivity after active sensitization with DNFB, ear swelling. It counts as in vivo. The note with it: F991 topically on the ears 4 hours before challenge. As to the method:
as §1, with “5 days after the start of sensitization and 4 hours before local challenge with hapten, mice were treated with F991 on the ears.” left out
Topical treatment of DNFB-sensitized mice at 4 hours before hapten challenge results in complete inhibition of the development of contact sensitivity response as determined by earswelling at 2 and 24 hours after challenge.

Data set [3] has as its system Ig light chain. The data set is described as follows: Ig-LC-induced ear swelling after hapten challenge of mice passively sensitized with TNP-specific Ig-LC (inhibition by F991). It counts as in vivo. The text has this: F991 is developed as an antagonist of Ig light chain. The working hypothesis for this compound is that it binds to Ig light chains and thereby prevents binding of light chains to their putative receptors. F991 is a 9-mer peptide derived from the endogenous protein uromodulin. The potency of F991 to inhibit Ig-LC induced cutaneous reactions (ear swelling responses) was studied. Our working hypothesis for this compound is that it is an antagonist of Ig-LC and binds to Ig-LC and thereby prevents binding of Ig-LC to their putative receptors. F991 was administered in different dosages, via various administration routes.
Indicated amounts of F991 per mouse were intravenously injected at 30 min before hapten challenge. At that same time point mice were injected (passively sensitized) with TNP-specific Ig-LC or vehicle (PBS). […]
Mice were i.v. sensitized with 2 µg TNP-specific Ig light chain at 30 min before ear challenge with TNP. Control mice were injected with PBS instead of Ig light chain. […]

Data set [4] concerns myelin oligodendrocyte glycoprotein (MOG)-induced experimental allergic encephalomyelitis (EAE). The data set is described as follows: MOG-induced experimental allergic encephalomyelitis (EAE), mouse model for MS. It counts as in vivo. The text has this: If light chains were involved in the activation of mast cells in patients with MS, the prediction is that F991 may be of therapeutic interest in the treatment of MS. We tested if F991 was able to prevent of reduce development clinical signs in an established mouse model for MS, i.e. myelin oligodendrocyte glycoprotein (MOG)-induced experimental allergic encephalomyelitis (EAE). Mouse were sensitized with antigenic peptide 35-55 from MOG in complete freund adjuvant. At the day of sensitization and 3 days later, mice also received an injection with pertussis toxin. In general, 10-12 days after the start of sensitization mice develop clinical signs of MS, which can be scored in degree of paralysis (0=no paralysis, 1=tail flaccidity, 2=hind limb weakness, 3=hind limb paralysis, 4=forelimb paralysis or loss of ability to right supine, 5=death). To investigate if F991 is able to prevent development of clinical signs of MS, mice were daily injected with 50 µg F991/animal i.p. starting at day -1 until day 21. […] Control mice developed disease with a mean day of onset of 11.8 and a mean clinical score of 2.3. There was a significant difference in disease burden (mean cumulative EAE score) between the F991 (mean 4.2) treated group and the control group (mean 18.3). […] (Figure 17).

Where [5] appears, read: 50 µg F991/animal i.p. daily from day -1 until day 21.

For “F991: 9-mer peptide derived from the endogenous protein uromodulin, developed as an antagonist of Ig light chain; sequence probably AHWSGHCCL”, the “stability of F991 in ointment (activity after storage)” value in data set [1] is reported as “retained its activity”. The “ear swelling, contact sensitivity” value in data set [2] (2 hours after challenge) is “completely inhibited”. In addition, the “ear swelling, contact sensitivity” value in data set [2] (24 hours after challenge) is listed as “completely inhibited”. For the same substance, the “block of the Ig-LC -induced ear swelling” value in data set [3] (2 µg per mouse (1.9 nmole) i.v. 30 min before hapten challenge, 2 hours after challenge) was “completely block”. Besides, the “induction of an ear swelling response” value in data set [3] (50 µg F991 intraperitoneally at 4 or 24 hours before hapten challenge) is “completely prevented”. Further, the “Ig-LC -induced ear swelling after hapten challenge” value in data set [3] (50 µg F991 subcutaneously at 4 or 24 hours before hapten challenge) is on record as “completely inhibited”. The “systemic inhibition of the Ig-LC effects” value in data set [3] (F991 ointment applied on the back of the mice instead of the ear) was “does not result in systemic inhibition”. In addition, the “inhibition of the ear swelling induced after hapten challenge” value in data set [3] (F991 ointment in Cremor Cetomacrogolis FNA applied on the ear 4 hours before hapten challenge, 2 hours after challenge) is listed as “dose-dependent inhibition”. Also, the “inhibition of the ear swelling response” value in data set [3] (different amounts of F991 i.v. 30 min before hapten challenge, ear thickness 2 hours after challenge) is on record as “dose-dependent inhibition”. In data set [4] (setting [5]), the “development of clinical signs of paralysis” value is “completely prevented” and the “disease burden (mean cumulative EAE score)” value worked out at 4.2. Further, the “clinical symptoms after termination of the treatment” value in data set [4] (termination of F991 at 21 days after sensitization) is recorded as “some minor clinical symptoms”.
